Measurements published in patent US20110105496A1, “Methods For The Treatment Of Myosin Heavy Chain-Mediated Conditions Using 4,7-Dihydrothieno[2,3-B]Pyridine Compounds” (priority 2005, published 2011).

System: alpha-MyHC
Assay: alpha-MyHC cytoblot process in neonatal rat ventricular myocytes (NRVM)
Assay type: cell-based

Row | SMILES | Relative Light Unit (RLU) values (high control, 3 nM T3, low control (vehicle only) 2,000-3,000) | Max Plateau | EC50 [nM]
1 | N[C@@H](Cc1cc(I)c(Oc2ccc(O)c(I)c2)c(I)c1)C(=O)O [Compound T3, 3,5,3′-triiodo-L-thyronine, reference compound] | 8,000-10,000 RLU | – | –
2 | CC(=O)NCCOC(=O)C1=C(C)Nc2sc(C(=O)c3ccc(Cl)c(Cl)c3)c(N)c2C1c1ccccc1 (stereo not drawn) [compound 214] | – | 100.00 ± 0.00 | –
3 | CCC1=C(C(=O)OCCN)C(c2ccccc2F)c2c(sc(C(=O)c3ccc(Cl)c(Cl)c3)c2N)N1 (stereo not drawn) [compound 221] | – | 156.50 ± 9.76 | 22.7
4 | CC1=C(C(=O)OCCNC(=O)OC(C)(C)C)C(c2ccccc2F)c2c(sc(C(=O)c3ccc(Cl)c(Cl)c3)c2N)N1 (stereo not drawn) [compound 223] | – | 213.11 ± 12.55 | 10.8
